{"source": "patent US10201585B2", "about": "“Methods for treatment of atherosclerosis” (Stealth Peptides International, Inc., priority 2012, dated 2019)", "tested_on": "Apoprotein E deficient mice", "assay": "Plasma lipoprotein cholesterol by gel electrophoresis (Spife; HDL-C, LDL-C, VLDL-C)", "assay_type": "in vivo", "text": "Apoprotein E deficient mice (Jackson Laboratories, 600 Main Street, Bar Harbor, Me.) were used in this study. The mice were male, 7-8 weeks of age, and between 18-20 g in weight. An initial total cholesterol measurement was made on 30 mice, and the mice were grouped into two groups of 15 to match the total cholesterol measurements. Both groups were fed a “western diet” (40 kcal % butterfat, 0.15% [wt/wt] cholesterol, Harlan Teklad diet TD-88137). Starting at t=0, the control group of 15 mice received vehicle only (phosphate buffered saline at pH 7.4), while the test group of 15 mice received aromatic-cationic peptide reconstituted in phosphate buffered saline. Body weights of the mice were recorded weekly, and mortality checks were performed daily.\nThe aromatic-cationic peptide D-Arg-2′6′-Dmt-Lys-Phe-NH2 (sterile lyophilized powder, reconstituted in phosphate buffered saline) was tested. For the 12-week study, test mice received a single, daily dose of the peptide, subcutaneously at 1 mg/kg. Control mice received a single daily dose of vehicle.\nBlood was collected every four weeks (orbital plexis) under isoflurane anesthesia (3%) and blood lipids were determined. Plasma lipid analysis was conducted for both groups at t=0, 4, 6, 8, and 12 weeks. Plasma lipid analysis using an autoanalyzer included total cholesterol (TC), triglycerides (Trigs), phospholipids (PL), free cholesterol (FC), and cholesterol ester (CE, by calculation). Gel electrophoresis was used to measure levels of high-density lipoprotein cholesterol (HDL-C), low-density lipoprotein cholesterol (LDL-C), and very low-density lipoprotein cholesterol (VLDL-C).", "key": {"[1]": {"settings": "Week 0 (baseline), group mean of 15 test mice, vehicle group 25"}, "[2]": {"settings": "Week 0 (start of treatment, baseline), individual mouse of peptide group (sample 16-30)"}, "[3]": {"settings": "Week 4, individual test mice (sample # 16-30), listed as aromatic-cationic peptide"}, "[4]": {"settings": "Week 8, individual test mice (sample # 16-30), listed as aromatic-cationic peptide"}, "[5]": {"settings": "Week 12, AVE of test mice 16-30"}, "[6]": {"settings": "Week 12, individual test mice (sample # 16-30), listed as aromatic-cationic peptide"}, "[7]": {"settings": "treated versus vehicle at 4, 8 and 12 week time points"}}, "note": "Where “and” joins values, the source holds several entries; their conditions need not be identical. Equal values may be shown once.", "data": [{"substance": "D-Arg-2′6′-Dmt-Lys-Phe-NH2", "values": [{"measurement": "Plasma HDL-C, AVE", "setting": "[1]", "value": 28, "unit": "mg/dL"}, {"measurement": "Plasma VLDL-C, AVE", "setting": "[1]", "value": 26, "unit": "mg/dL"}, {"measurement": "Plasma LDL-C, AVE", "setting": "Week 0 (baseline), group mean of 15 test mice, vehicle group 362", "value": 368, "unit": "mg/dL"}, {"measurement": "Plasma HDL-C", "setting": "[2]", "value": "19 mg/dL and 34 mg/dL and 32 mg/dL and 37 mg/dL and 35 mg/dL and 21 mg/dL and 38 mg/dL and 41 mg/dL and 6 mg/dL and 31 mg/dL and 26 mg/dL and 39 mg/dL and 22 mg/dL and 29 mg/dL and 8 mg/dL"}, {"measurement": "Plasma LDL-C", "setting": "[2]", "value": "258 mg/dL and 260 mg/dL and 307 mg/dL and 245 mg/dL and 268 mg/dL and 295 mg/dL and 304 mg/dL and 474 mg/dL and 287 mg/dL and 352 mg/dL and 380 mg/dL and 481 mg/dL and 410 mg/dL and 432 mg/dL and 773 mg/dL"}, {"measurement": "Plasma VLDL-C", "setting": "[2]", "value": "25 mg/dL (2×) and 23 mg/dL and 37 mg/dL and 20 mg/dL (2×) and 19 mg/dL and 27 mg/dL and 36 mg/dL and 15 mg/dL and 26 mg/dL and 31 mg/dL and 24 mg/dL and 28 mg/dL and 29 mg/dL"}, {"measurement": "HDL-C, Spife (electrophoresis)", "setting": "Week 4, AVE of test mice 16-30", "value": 25, "unit": "mg/dL"}, {"measurement": "LDL-C, Spife (electrophoresis)", "setting": "Week 4, AVE of test mice 16-30", "value": 940, "unit": "mg/dL"}, {"measurement": "VLDL-C, Spife (electrophoresis)", "setting": "Week 4, AVE of test mice 16-30", "value": 33, "unit": "mg/dL"}, {"measurement": "HDL-C, Spife (electrophoresis)", "setting": "[3]", "value": "18 mg/dL and 20 mg/dL (3×) and 0 mg/dL and 13 mg/dL and 7 mg/dL and 23 mg/dL and 32 mg/dL (3×) and 15 mg/dL and 45 mg/dL and 44 mg/dL and 49 mg/dL"}, {"measurement": "LDL-C, Spife (electrophoresis)", "setting": "[3]", "value": "745 mg/dL and 866 mg/dL and 918 mg/dL and 1120 mg/dL and 982 mg/dL and 648 mg/dL and 893 mg/dL and 975 mg/dL and 770 mg/dL and 766 mg/dL and 966 mg/dL and 1147 mg/dL and 874 mg/dL and 1171 mg/dL and 1254 mg/dL"}, {"measurement": "VLDL-C, Spife (electrophoresis)", "setting": "[3]", "value": "35 mg/dL (2×) and 37 mg/dL (2×) and 19 mg/dL and 44 mg/dL (2×) and 18 mg/dL and 23 mg/dL and 39 mg/dL and 41 mg/dL and 28 mg/dL and 31 mg/dL and 30 mg/dL and 32 mg/dL"}, {"measurement": "HDL-C, Spife (electrophoresis)", "setting": "Week 8, AVE of test mice 16-30", "value": 32, "unit": "mg/dL"}, {"measurement": "LDL-C, Spife (electrophoresis)", "setting": "Week 8, AVE of test mice 16-30", "value": 1166, "unit": "mg/dL"}, {"measurement": "VLDL-C, Spife (electrophoresis)", "setting": "Week 8, AVE of test mice 16-30", "value": 84, "unit": "mg/dL"}, {"measurement": "HDL-C, Spife (electrophoresis)", "setting": "[4]", "value": "42 mg/dL and 34 mg/dL and 27 mg/dL and 33 mg/dL and 19 mg/dL (2×) and 8 mg/dL and 45 mg/dL and 16 mg/dL and 32 mg/dL and 41 mg/dL (2×) and 25 mg/dL and 43 mg/dL and 57 mg/dL"}, {"measurement": "LDL-C, Spife (electrophoresis)", "setting": "[4]", "value": "1119 mg/dL and 897 mg/dL and 1392 mg/dL and 1071 mg/dL and 1415 mg/dL and 901 mg/dL and 875 mg/dL and 1378 mg/dL and 922 mg/dL and 856 mg/dL and 1317 mg/dL and 1320 mg/dL and 1025 mg/dL and 1382 mg/dL and 1621 mg/dL"}, {"measurement": "VLDL-C, Spife (electrophoresis)", "setting": "[4]", "value": "101 mg/dL and 73 mg/dL and 86 mg/dL and 79 mg/dL (2×) and 112 mg/dL and 34 mg/dL and 88 mg/dL and 69 mg/dL and 59 mg/dL and 93 mg/dL and 74 mg/dL and 80 mg/dL and 109 mg/dL and 119 mg/dL"}, {"measurement": "HDL-C, Spife (electrophoresis)", "setting": "[5]", "value": 21, "unit": "mg/dL"}, {"measurement": "LDL-C, Spife (electrophoresis)", "setting": "[5]", "value": 939, "unit": "mg/dL"}, {"measurement": "VLDL-C, Spife (electrophoresis)", "setting": "[5]", "value": 44, "unit": "mg/dL"}, {"measurement": "HDL-C, Spife (electrophoresis)", "setting": "[6]", "value": "38 mg/dL and 20 mg/dL (2×) and 10 mg/dL and 41 mg/dL and 21 mg/dL and 5 mg/dL and 31 mg/dL (2×) and 2 mg/dL (2×) and 40 mg/dL and 28 mg/dL and 1 mg/dL and 23 mg/dL"}, {"measurement": "LDL-C, Spife (electrophoresis)", "setting": "[6]", "value": "821 mg/dL and 485 mg/dL and 854 mg/dL and 852 mg/dL and 1328 mg/dL and 693 mg/dL and 611 mg/dL and 692 mg/dL and 962 mg/dL and 896 mg/dL and 1275 mg/dL and 1218 mg/dL and 505 mg/dL and 1203 mg/dL and 1688 mg/dL"}, {"measurement": "VLDL-C, Spife (electrophoresis)", "setting": "[6]", "value": "39 mg/dL and 35 mg/dL and 21 mg/dL (2×) and 43 mg/dL and 71 mg/dL and 32 mg/dL and 33 mg/dL and 26 mg/dL and 63 mg/dL and 76 mg/dL and 36 mg/dL and 30 mg/dL and 83 mg/dL and 46 mg/dL"}, {"measurement": "Plasma LDL-C, in words", "setting": "[7]", "value": "reduces"}, {"measurement": "Plasma VLDL-C, in words", "setting": "[7]", "value": "reduces"}]}]}
